Legend:
K. pneumoniae BAA-1705 = test: Synergistic bacteriostatic test (checkerboard test); type: cell-based, Klebsiella pneumoniae
Experimental: (§1) The synergistic bacteriostatic test is carried out by using the silver-containing antibacterial colloid (green mediated AgNP inhibitor) manufactured in the present embodiment and a bioactivator (using Gentamicin as an example). The fractional inhibitory concentration (FIC) index is used as a reference index for synergy. Synergy is the phenomenon in which two or more substances are mixed with each other, and the overall effect is greater than the advantage of each substance alone or less than the disadvantage of each substance alone. […] In the two-fold serial dilutions, the concentration of Gentamicin used for K. pneumoniae 700623 ranging from 1.25 μg·mL^−1 to 40 μg·mL^−1, and the concentration of Gentamicin used for K. pneumoniae BAA-1705 ranged from 5 μg·mL^−1 to 160 μg·mL^−1 The green mediated AgNP inhibitor extract extracted with TSB medium is used, and the above procedure is repeated to dilute the concentration of the green mediated AgNP inhibitor extract to 10 mg·mL^−1 50 μL of green mediated AgNP inhibitor is added longitudinally to the 96-well microplate in a two-fold serial dilution using MHB, followed by two-fold serial dilutions of six times at concentrations ranging from 0.31 mg·mL^−1 to 10 mg·mL^−1 Using 0.5 Mcfarland turbidity as the quantitative standard for bacterial solution (0.5 Mcfarland=10^8 CFU/mL). […]

K. pneumoniae 700623 = test: as above; type: cell-based, Klebsiella pneumoniae
Experimental: as §1

[1] = in combination with green mediated AgNP inhibitor

## Gentamicin
K. pneumoniae BAA-1705; [1]
  concentration of Gentamicin when used in combination (G-MIC-com): 10 µg/mL
K. pneumoniae BAA-1705; used alone
  MIC of Gentamicin when used alone (MICG): 40 µg/mL
K. pneumoniae 700623; [1]
  concentration of Gentamicin when used in combination (G-MIC-com): 5 µg/mL
K. pneumoniae 700623; used alone
  MIC of Gentamicin when used alone (MICG): 40 µg/mL
